Test results reported in PMC12452389, “Arginine-Derived Cationic Surfactants Containing Phenylalanine and Tryptophan: Evaluation of Antifungal Activity, Biofilm Eradication, Cytotoxicity, and Ecotoxicity” (Journal of Xenobiotics, 2025).
≈ marks a conversion by molar mass, not a printed value. Where “and” joins values, the source holds several entries; their conditions need not be identical. Equal entries are not always repeated. Structures can show the parent of a compound that is named as a salt. Where two headings read alike, the source gives them in different places. Peptide text beside a SMILES is read from it. * marks the point of attachment. Lauroyl = CCCCCCCCCCCC(=O)*

Tests used:
[1] = Surface tension, pendant drop tensiometer (cmc, γc); assay type: physicochemical; conditions: for cmc: from surface tension
Protocol: Surface tension was measured using a custom-built pendant drop tensiometer, as described in detail in reference. Briefly, a droplet of surfactant solution is formed at the tip of a straight-cut Teflon tube. The image of the droplet is captured using a webcam, and its shape is analyzed by fitting the droplet profile to the Laplace–Young equation [14], To minimize evaporation, all measurements were conducted in a saturated humid atmosphere. The use of this technique is especially well-suited for cationic surfactants because it helps to mitigate complications related to surface adsorption. Critical micelle concentration values (cmc) were determined by finding the intersection of the linear fits before and after the break in the curves.

[2] = tested on: Candida albicans ATCC 90028; experiment: MIC broth microdilution; assay type: cell-based; conditions: C. albicans; for MIC: Candida albicans, ATCC90028, read-out: MIC
Protocol: (§1) The antimicrobial activity of these compounds was assessed against selected yeast and bacterial strains: Candida albicans ATCC 90028 (CA9), Candida rugosa ATCC 10571 (CR), Candida glabrata ATCC 66032 (CG), Candida parapsilosis ATCC 22019 (CP), Candida tropicalis ATCC 7349 (CT), Candida auris ATCC 21092 (CA), and Cyberlindnera jadinii ATCC 60459. Frozen yeast stocks were plated on Sabouraud agar (SBA) and incubated at 30 °C for 24 h. Three to four colonies from each strain were then suspended in RPMI 1640 (Roswell Park Memorial Institute medium, Sigma- Aldrich, Merck, Darmstadt, Germany) to prepare bacterial dispersions of ~1.5 × 10^6 CFU/mL.
(§2) A broth microdilution assay was used to calculate MIC values. Twofold serially diluted compounds in RPMI 1640 medium (from 256 to 2 μg/mL), were dispensed (100 μL per well) into a 96-well plate. Then, 100 μL of a yeast starter culture was added to each well to reach a final inoculum of 7.5 × 10^5 CFU/mL. Wells containing only nutrient broth without the tested surfactant served as growth controls. Microbial growth was assessed by turbidity, which reflects increases in biomass and cell count. […] To confirm the obtained MICs, 20 μL of 0.015% (w/v) resazurin was dispensed to each well and incubated for 3 h at 30 °C. Metabolic activity was evidenced by a color change from blue to pink, thereby confirming the MIC value.

Candida auris ATCC 21092 = experiment: MIC broth microdilution; assay type: cell-based; conditions: C. auris; for MIC: Candidozyma auris, ATCC21092, read-out: MIC
Protocol: as §1, §2

[3] = tested on: Candida glabrata ATCC 66032; experiment: MIC broth microdilution; assay type: cell-based; conditions: for MIC: Nakaseomyces glabratus, read-out: MIC
Protocol: as §1, §2

[4] = tested on: Candida parapsilosis ATCC 22019; experiment: MIC broth microdilution; assay type: cell-based; conditions: C. parapsilosis; for MIC: Lodderomyces parapsilosis, ATCC22019, read-out: MIC
Protocol: as §1, §2

[5] = tested on: Candida rugosa ATCC 10571; experiment: MIC broth microdilution; assay type: cell-based; conditions: C. rugosa; for MIC: Diutina rugosa, ATCC10571, read-out: MIC
Protocol: as §1, §2

[6] = tested on: Candida tropicalis ATCC 7349; experiment: MIC broth microdilution; assay type: cell-based; conditions: C. tropicalis; for MIC: Candida tropicalis, ATCC7349, read-out: MIC
Protocol: as §1, §2

[7] = tested on: Cyberlindnera jadinii ATCC 60459 (C. jardinii); experiment: MIC broth microdilution; assay type: cell-based; conditions: for Selectivity Index (HC50/MIC): C. jardini; for MIC: Williopsis jadinii
Protocol: as §1, §2

erythrocytes = experiment: Hemolytic activity assay; assay type: cell-based; conditions: rabbit erythrocytes
Protocol: Fresh rabbit blood was obtained from the Animal Facility of the CID-CSIC (Research and Development Center, Spanish National Research Council, Barcelona, Spain). Sample collection was conducted in strict compliance with the bioethical guidelines established under Spanish legislation. Erythrocytes were isolated by centrifugation (3000 rpm/10 min). The supernatant was discarded, and the erythrocytes were washed three times with PBS (phosphate-buffered saline, pH 7.4) and then resuspended in PBS at a concentration of 8 × 10^9 cells/mL. Subsequently, varying volumes of a concentrated surfactant solution were added to Eppendorf tubes containing 25 μL of erythrocyte suspension. PBS was then added to bring the total volume to 1 mL. The samples were gently shaken for 10 min at room temperature and centrifuged at 10,000 rpm for 5 min. Hemolysis was evaluated by measuring the absorbance of the supernatant at 540 nm and comparing it to that of a 100% hemolysis control (erythrocytes treated with distilled water). The HC50, defined as the surfactant concentration that induces 50% hemolysis, was determined from the concentration–response curves: % hemolysis= Abstest compound/AbsBasal haemolytic activity ×100

Daphnia magna = experiment: Acute toxicity, immobilization test; assay type: in vivo; conditions: Daphnia magna, 48 h
Protocol: Aquatic toxicity evaluation was performed using Daphnia magna following established protocols. This bioassay method employs laboratory-cultured freshwater microcrustaceans to evaluate surfactant toxicity in aquatic environments. Test organisms were utilized during their initial 24 h life stage to ensure consistency. The endpoint measurement focused on mobility impairment, specifically the loss of swimming capability after gentle stimulation lasting 15 s. Testing conditions included controlled water chemistry parameters: pH maintained at 8.0, calcium-to-magnesium ratio of 4:1, and total hardness of 250 mg/L as CaCO3. All experiments were conducted under dark conditions at 20 °C. The experimental design incorporated ten test concentrations for each surfactant compound, distributed in geometric progression. Each concentration level included 20 Daphnia specimens distributed across four replicate groups of five organisms each. Mobility assessment occurred at 48 h post-exposure, with immobilization percentages plotted against concentration using probability–logarithmic scaling.

Vibrio fischeri = experiment: Luminescence reduction test; assay type: cell-based; conditions: Aliivibrio fischeri, 0.25 h; Vibrio fischeri bioluminescence, 15 min of exposure; 95% confidence intervals in parentheses
Protocol: Ecotoxicological assessment of cationic surfactants was conducted using the Vibrio fischeri luminescent bioassay. This method relies on the measurement of decreased bioluminescent output from marine bacteria following contact with potentially toxic substances. Regression analysis was used to determine the concentration of the compound that caused a 50% reduction (EC50) in the amount of light emitted by the bacteria. The stated toxicity statistics given are based on the bacteria being exposed to the ionic liquid solution for 15 min at 15 °C.

[8] = design: method as in PMID 36559096; conditions: conductivity values; cited from earlier work
[9] = ATCC66032, 24 h, C. glabrata, RPMI 1640, 24 h, 30 °C
[10] = ATCC66032, C. glabrata, value in parentheses

Structure (SMILES)	γc (surface tension at the cmc) [1]	cmc [1]	Selectivity Index (HC50/MIC) ([2]; Table S1)	MIC ([2]; RPMI 1640, 24 h, 30 °C)	MIC ([2]; value in parentheses)	Selectivity Index (HC50/MIC) (Candida auris ATCC 21092; Table S1)	MIC (Candida auris ATCC 21092; RPMI 1640, 24 h, 30 °C)	MIC (Candida auris ATCC 21092; value in parentheses)	Selectivity Index (HC50/MIC) ([3]; C. glabrata, Table S1)	MIC [3, 9]	MIC [3, 10]	MIC ([4]; RPMI 1640, 24 h, 30 °C)	MIC ([4]; value in parentheses)	MIC ([5]; RPMI 1640, 24 h, 30 °C)	MIC ([5]; value in parentheses)	MIC ([6]; RPMI 1640, 24 h, 30 °C)	MIC ([6]; value in parentheses)	HC50 (erythrocytes; 10 min, room temperature)	HC50 (erythrocytes; value in parentheses)	cmc Cond [8]	other results
CCCCCCCCCCCC(=O)NC(CCCNC(=N)N)C(=O)OC (centres unmarked) [C12AM]	29.5 ± 1.5 mNm^−1	1.7 mM	3.4	32 µg/mL	78 µM	0.9	128 µg/mL	312 µM	7	16 µg/mL	39 µM	16 µg/mL	39 µM	64 µg/mL	156 µM	8 µg/mL	19 µM	109 ± 0.6 µg/mL	270 ± 1.7 µM	6 mM	Selectivity Index (HC50/MIC) ([4]; Table S1): 7; Selectivity Index (HC50/MIC) ([5]; Table S1): 1.7; Selectivity Index (HC50/MIC) ([6]; Table S1): 14; Selectivity Index (HC50/MIC) ([7]; Table S1): 1.7; MIC ([7]; ATCC60459): 156 µM; MIC ([7]; ATCC60459, 24 h): 64 µg/mL; EC50 (Daphnia magna): 4.4 µg/mL (≈ 11.9 µM); EC50 (Vibrio fischeri): 1.9 µg/mL (≈ 5.13 µM)
CCCCCCCCCCCC(=O)NC(Cc1ccccc1)C(=O)NC(CCCNC(=N)N)C(=O)OC (stereo not drawn) [C12PAM] (Lauroyl-Phe-Arg-OMe; configuration not given here)	29.5 ± 2.7 mNm^−1	0.7 mM	1.4	16 µg/mL	29 µM	0.7	32 µg/mL	58 µM	1.4	16 µg/mL	29 µM	16 µg/mL	29 µM	4 µg/mL	7 µM	16 µg/mL	29 µM	23 ± 0.8 µg/mL	42 ± 1.5 µM	1.2 mM	Selectivity Index (HC50/MIC) ([4]; Table S1): 1.4; Selectivity Index (HC50/MIC) ([5]; Table S1): 6; Selectivity Index (HC50/MIC) ([6]; Table S1): 1.4; Selectivity Index (HC50/MIC) ([7]; Table S1): 0.4; MIC ([7]; ATCC60459): 116 µM; MIC ([7]; ATCC60459, 24 h): 64 µg/mL
CCCCCCCCCCNC(=O)C(CCCNC(=N)N)NC(=O)C(N)Cc1ccccc1 (centres unmarked) [PANHC10]	30.6 ± 9.7 mNm^−1	6.7 mM	–	128 µg/mL	240 µM	–	256 µg/mL	480 µM	–	64 µg/mL	120 µM	64 µg/mL	120 µM	128 µg/mL	240 µM	128 µg/mL	240 µM	215 ± 22 µg/mL	404 ± 42 µM	7.2 mM	Selectivity Index (HC50/MIC) ([2]; Table S2): 1.6; Selectivity Index (HC50/MIC) (Candida auris ATCC 21092; Table S2): 0.8; Selectivity Index (HC50/MIC) ([3]; C. glabrata, Table S2): 3.7; Selectivity Index (HC50/MIC) ([4]; Table S2): 3.7; Selectivity Index (HC50/MIC) ([5]; Table S2): 1.6; Selectivity Index (HC50/MIC) ([6]; Table S2): 1.6; Selectivity Index (HC50/MIC) ([7]; Table S2): 1.6; MIC ([7]; ATCC60459, C. jardinii, RPMI 1640, 24 h, 30 °C, read-out: MIC): 128 µg/mL; MIC ([7]; ATCC60459, C. jardinii, value in parentheses, read-out: MIC): 240 µM; EC50 (Daphnia magna): 22 µg/mL (≈ 47.8 µM); EC50 (Vibrio fischeri): 5.6 µg/mL (≈ 12.2 µM)
CCCCCCCCCCCCNC(=O)C(N)Cc1ccccc1 (centres unmarked) [PNHC12, phenylalanine dodecyl amide hydrochloride]	26.6 ± 0.8 mNm^−1	1.2 mM	2.5	8 µg/mL	22 µM	0.6	32 µg/mL	88 µM	0.6	32 µg/mL	88 µM	32 µg/mL	88 µM	32 µg/mL	88 µM	32 µg/mL	88 µM	20 ± 0.6 µg/mL	55 ± 1.7 µM	1.2 mM	Selectivity Index (HC50/MIC) ([4]; Table S1): 0.6; Selectivity Index (HC50/MIC) ([5]; Table S1): 0.6; Selectivity Index (HC50/MIC) ([6]; Table S1): 0.6; Selectivity Index (HC50/MIC) ([7]; Table S1): 0.6; MIC ([7]; ATCC60459, 24 h): 32 µg/mL and 88 µM
